Experimental data: patent publication US8974768B2, “Azo compounds reducing formation and toxicity of amyloid beta aggregation intermediates” (Max-Delbrueck-Centrum fuer Molekulare Medizin, priority 2010, dated 2015)
Structures can show the parent of a compound that is named as a salt. Where two headings read alike, the source gives them in different places. Marks after values point to notes of the source that are not given here.

Columns and labels:
Aβ1-42 peptide = Aβ1-42 peptide (Homo sapiens, UniProt P05067); assay: Thioflavin T (Thio T)-assay of Aβ aggregation; format: biochemical
in vitro = conditions: human
Tg2576 mice = assay: Contextual fear conditioning in Tg2576 mice; format: in vivo, mouse; conditions: 9-month-old Tg2576 mice, feeding pellets for 12 weeks
Description: Groups of Tg2576 mice overexpressing the 695-amino acid isoform of human amyloid precursor protein containing a Lys670→Asn, Met671→Leu mutation (Hsiao, K. Science 1996) and wildtype control mice (13-21 per phenotype) were conditioned on day 1 by placing a subject mouse in a contextual fear conditioning chamber (Med Associates, […], Vt.). Exploration was allowed for 2 min, and an auditory cue was presented for 15 s accompanied by an electrical foot shock during the last 2 s. This procedure was repeated and mice were removed from the chamber after 30 s. Twenty hours later, mice were returned to the chamber in which conditioning occured, and their freezing behaviour (fear) was monitored. Freezing was defined as the lack of all movements, except those required for breathing (Comery, T. A., et al. Journal of Neuroscience, 2005). Data were analysed by two-way ANOVA in the S programming environment, followed by Fischer's least significant difference (LSD) pairwise comparison of group means at the p<0.05 significance level.
The contextual fear conditioning paradigm is a form of Pavlovian learning in which an association is made between stimuli and their aversive consequences. Studies of brain function implicate the amygdala in regulating fear, and the hippocampus in regulating the learning of the context in which a fearful event occurred.
The brain circuitry in wild type mice is intact and they are better able to associate an aversive foot shock with the context or environment in which the shock took place. They therefore show more freezing. Transgenic Alzheimer mice have compromised brain circuitry due to the toxic effects of amyloid-beta protein. They are therefore less able to associate an aversive shock with a context and show less freezing.
A substance that reverses the toxic effects of amyloid-beta in Alzheimer's mice will help in reconsolidating the impaired brain circuitry so that these mice begin to show more fear (freezing behavior) after treatment. This paradigm is therefore a robust method for showing the effect of drug candidate molecules in Alzheimer mice.

[1] = Detection of compounds in brain after in vivo administration; conditions: for Detection in brain after i.v. administration: B6C3 mouse, 5 mg/kg body weight i.v. once, brain samples; for Detectability after oral administration: mouse brain, oral gavage or feeding pellets; for Detection in brain after oral administration, feeding pellet preparation / Detection in brain after oral administration, oral gavage administration: mouse; for Detection in brain after oral administration, feeding pellet preparation: brain samples after one week feeding; for Detection in brain after oral administration, oral gavage administration: five to seven doses over two or three days, sampling 30 min. after last application
[2] = parameters: Detection in brain after i.v. administration: key to the marks not given beside the values; conditions: mouse, in vivo; for Detection in brain after i.v. administration: iv, 5 mg/kg
[3] = 30 μM Aβ1-42 peptide, 48 h at 37° C., vs DMSO control, read-out: ThioT: IC50

Sequence of Aβ1-42 peptide (P05067 672-713): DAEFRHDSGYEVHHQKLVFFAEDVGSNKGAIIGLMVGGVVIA

Structure (SMILES) | IC50 (Aβ1-42 peptide; [3]) [µM] | IC50 at 48 h (in vitro) [µM] | Detection in brain after i.v. administration [1] | further results
O=C(O)c1cc(N=Nc2ccccc2)ccc1O [A, 2-hydroxy-5-(phenyldiazenyl)benzoic acid, reference compound] | 57.4 |  |  | 
O=C(O)c1ccccc1N=Nc1ccc(O)cc1 [B, 2-((4-hydroxyphenyl)diazenyl)Benzoic acid, reference compound] | 736 |  |  | 
O=C(O)c1cc(N=Nc2ccc(-c3ccc(N=Nc4ccc(O)c(C(=O)O)c4)cc3)cc2)ccc1O [C, (5-5′-biphenyl-4,4′-diylbis(diazene-2,1-diyl)bis(2-hydroxybenzoic acid)), reference compound] | 0.5 |  |  | 
CN(C)CCCN1c2ccccc2Sc2ccc(Cl)cc21 [Chlorpromazine, Chlorpromazine hydrochloride, reference compound] |  | 14.1 |  | 
c1ccc(N=Nc2ccc(Nc3ccccc3)cc2)cc1 [Compound 1, N-phenyl-4-(phenyldiazenyl)aniline] | 4.5 | > 30 | ++ | Contextual memory (freezing behaviour) (Tg2576 mice): improvement; Detectability after oral administration [1]: excellent; Detection in brain after oral administration, feeding pellet preparation [1]: ++^a), b); Detection in brain after oral administration, oral gavage administration [1]: ++^a), b)
Nc1ccc(N=Nc2ccc([N+](=O)[O-])cc2)cc1 [Compound 3, 4-((4-nitrophenyl)diazenyl)aniline] | 3.3 | > 100 |  | 
Oc1ccc(N=Nc2ccccc2)cc1 [Compound 4, 4-(phenyldiazenyl)phenol] | 13.2 | ~90 |  | 
Oc1ccc2ccccc2c1N=Nc1ccccn1 [Compound 5, 1-(pyridin-2-yldiazenyl)naphthalen-2-ol] | 12.2 | > 10 | ++ | 
Nc1ccc(N=Nc2cccc(N=Nc3ccc(N)cc3N)c2)c(N)c1 [Compound 6, 4,4′-1,3-phenylenebis(diazene-2,1-diyl)dibenzene-1,3-diamine] | 0.9 | ~11 | ++ | 
CCNc1ccc2ccccc2c1N=Nc1ccc(N=Nc2ccccc2)cc1 [Compound 7, N-ethyl-1-((4-(-phenyldiazenyl)phenyl)diazenyl)naphthalen-2-amine] | 3.1 | > 3 | ++ | 
CN(C)c1ccc(N=Nc2ccc(N)cc2)cc1 [Compound 9, 4-((4-aminophenyl)diazenyl)-N,N-dimethylaniline] |  |  |  | Detection in brain after i.v. administration [2]: ++; Detectability after oral administration [2]: excellent; Detection in brain after oral administration, feeding pellet preparation [2]: ++^a)/+^b); Detection in brain after oral administration, oral gavage administration [2]: ++^a)/+^b); Contextual memory (freezing behaviour) (Tg2576 mice): improvement; IC50 (in vitro): > 100 µM; IC50 (Aβ1-42 peptide): 2.1 µM
CN(C)c1ccc(N=Nc2ccc(N=C=S)cc2)cc1 [Compound 10, 4-((4-isothiocyanatophenyl)diazenyl)-N,N-dimethylaniline] |  |  |  | Detection in brain after i.v. administration [2]: ++; Detectability after oral administration [2]: excellent; Detection in brain after oral administration, feeding pellet preparation [2]: ++^a), b); Detection in brain after oral administration, oral gavage administration [2]: ++^a), b); IC50 (in vitro): > 100 µM; IC50 (Aβ1-42 peptide): 0.4 µM
O=S(=O)(O)c1cccc(N=Nc2ccc(Nc3ccccc3)cc2)c1 [Compound 11] | 9.5 | > 100 |  | 
Oc1ccc(N=Nc2ccccn2)c(O)c1 [Compound 12, 4-(pyridin-2-yldiazenyl)benzene-1,3-diol] | 3 | > 1 | − | 
O=[N+]([O-])c1ccc(N=Nc2ccc(O)cc2O)cc1 [Compound 13, 4-((4-nitrophenyl)diazenyl)benzene-1,3-diol] | 1.1 |  | ++ | IC50 (in vitro): ~2 µM; Detectability after oral administration [1]: excellent; Detection in brain after oral administration, feeding pellet preparation [1]: ++^a), b); Detection in brain after oral administration, oral gavage administration [1]: ++^a), b)
Oc1ccc(N=Nc2nccs2)c(O)c1 [Compound 14, 4-(thiazol-2-yldiazenyl)benzene-1,3-diol] | 4.8 | > 3 | − | 
Oc1ccc(N=Nc2ccccc2)c(O)c1 [Compound 15, 4-(phenyldiazenyl)benzene-1,3-diol] | 2.2 | ~31 |  | 
Cc1cccc(N=Nc2cc(C=O)c(O)cc2O)c1 [Compound 16, 2,4-dihydroxy-5-(m-tolyldiazenyl)benzaldehyde] | 3.3 | > 30 |  | 

Structure (SMILES) | IC50 (Aβ1-42 peptide; [3]) [µM] | IC50 at 48 h (in vitro) [µM] | Detection in brain after i.v. administration [1] | further results
Oc1ccc(N=Nc2ncn[nH]2)c(O)c1 [Compound 17, 4-((1H-1,2,4-triazol-5-yl)diazenyl)benzene-1,3-diol] | 8 | > 100 |  | 
Cc1cc(N=Nc2nccs2)c(O)cc1O [Compound 18, 4-methyl-6-(thiazol-2-yldiazenyl)benzene-1,3-diol] | 2.4 | ~13 | ++ | Detectability after oral administration [1]: excellent; Detection in brain after oral administration, oral gavage administration [1]: ++^b)/n.d.^b)
Cc1cc(O)cc(O)c1N=Nc1ccc([N+](=O)[O-])cc1 [Compound 19, 5-methyl-4-((4-nitrophenyl)diazenyl)benzene-1,3-diol] | 0.9 | ~41 | ++ | 
Oc1ccc(N=Nc2cc(Cl)ccc2Cl)c(O)c1 [Compound 20, 4-((2,5-dichlorophenyl)diazenyl)benzene-1,3-diol] | 1.3 | ~3 | ++ | 
CN(C)c1ccc(N=Nc2ccccc2)cc1 [Compound 21, N,N-dimethyl-4-(phenyldiazenyl)aniline] |  |  |  | IC50 (in vitro): > 100 µM; IC50 (Aβ1-42 peptide): 16.8 µM
Cc1cc(O)cc(O)c1N=Nc1nccs1 [Compound 22, 5-methyl-4-(thiazol-2-yldiazenyl)benzene-1,3-diol] | 2.4 | ~101 | − | 
O=[N+]([O-])c1ccc(N=NNc2ccc(N=Nc3ccccc3)cc2)cc1 [Compound 23, 1-(4-nitrophenyl)-3-(4-(phenyldiazenyl)phenyl)triaz-1-ene] | 1.1 | > 30 |  | 
Nc1ccc(N=Nc2ccc(Nc3ccccc3)cc2)cc1 [Compound 24, 4-((4-aminophenyl)diazenyl)-N-phenylaniline] | 4.8 | > 30 |  | 
Oc1ccc2ccccc2c1N=Nc1ccccc1 [Compound 25, 1-(phenyldiazenyl)naphthalen-2-ol] | 43.9 |  |  | 
Cc1cc(N=Nc2ccccc2C)ccc1N [Compound 26, 2-methyl-4-(o-tolyldiazenyl)aniline] | 31.8 |  |  | 
O=S(=O)(O)c1ccc(N=Nc2ccc(O)cc2O)cc1 [Compound 27, sodium 4-((2,4-dihydroxyphenyl)diazenyl)benzenesulfonate] | 61.5 |  |  | 
O=S(=O)(O)c1cc(O)c2c(N=Nc3ccc(O)cc3O)cc(S(=O)(=O)O)cc2c1 [Compound 28, 4-((2,4-dihydroxyphenyl)diazenyl)-5-hydroxynaphthalene-2,7-disulfonic acid] | 19.2 |  |  | 
O=S(=O)(O)c1ccc(O)c(N=Nc2ccc(O)cc2O)c1 [Compound 29, sodium 3-((2,4-dihydroxyphenyl)diazenyl)-4-hydroxybenzenesulfonate] | 19.8 |  |  | 
COc1ccc(N=Nc2nccs2)c(O)c1 [Compound 30, 5-methoxy-2-(thiazol-2-yldiazenyl)phenol] | 27.4 |  |  | 
O=[N+]([O-])c1ccc(N=Nc2c(O)ccc3ccccc23)cc1 [Compound 31, 1-((4-nitrophenyl)diazenyl)naphthalen-2-ol] | 87.1 |  |  | 
c1ccc(N=Nc2ccccc2)cc1 [compound 33, 1,2-diphenyldiazene, reference compound] |  |  |  | IC50 (Aβ1-42 peptide): 1090 µM
CCOc1ccc(N=Nc2ccc(C)cc2)cc1C [compound 34, 1-(4-ethoxy-3-methylphenyl)-2-p-tolyldiazene, reference compound] | 105 |  |  | 
